Patent EP0552417B1, “Cyclic peptides and use thereof” (priority 1991, dated 1993)
Non-standard residues stand in square brackets, D forms with d. Residues, ends and D or L forms follow the SMILES beside them. *: point of attachment. Hyp = O=C(O)[C@@H]1C[C@@H](O)CN1; d2Thi = N[C@H](Cc1cccs1)C(=O)O; Pip = O=C(O)[C@@H]1CCCCN1; Aze = O=C(O)[C@@H]1CCN1; For = O=C*

How the values were obtained:
[1] = target: T1, endothelin receptor A (ETA) (Sus scrofa, UniProt Q29010); assay: Assay of affinity for receptor (1): binding activity on ETA receptor, 125I-labeled endothelin-1, porcine heart membrane fraction; design: key: relative specific activity; reference cyclic pentapeptide ETA binding = 1.0; conditions: specific activity, taking the binding activity of control cyclo[-D-Glu-Ala-D-aIle-Leu-D-Trp-] on receptor A as 1.0, 25°C, 1 hour
T1 construct: A membrane fraction prepared from the porcine heart; from tissue; host or cells: porcine heart membrane fraction
T1 sequence (Q29010 21-427): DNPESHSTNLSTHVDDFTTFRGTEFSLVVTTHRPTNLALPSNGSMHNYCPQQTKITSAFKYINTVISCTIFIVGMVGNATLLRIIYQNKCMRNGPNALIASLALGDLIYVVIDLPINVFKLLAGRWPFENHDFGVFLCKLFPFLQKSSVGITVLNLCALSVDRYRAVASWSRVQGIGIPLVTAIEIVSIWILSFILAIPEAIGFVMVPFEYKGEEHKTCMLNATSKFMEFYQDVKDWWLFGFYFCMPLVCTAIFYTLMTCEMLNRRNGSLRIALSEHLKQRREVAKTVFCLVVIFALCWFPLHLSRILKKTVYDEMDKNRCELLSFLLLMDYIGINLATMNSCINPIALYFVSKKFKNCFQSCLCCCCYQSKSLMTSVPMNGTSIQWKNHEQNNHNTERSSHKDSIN
Experimental: Assay of Affinity for Receptor (1) ... Binding Activity on ETA Receptor
A membrane fraction prepared from the porcine heart was diluted to 0.15 mg/ml by using a buffer solution for assay, and 100 µl of the resulting suspension of the membrane fraction was poured into each assay tube to use for assay. To this suspension of the membrane fraction was added 2 µl of 5 nM ^125I-labeled endothelin-1 solution. Further, 3 µl of a test peptide solution was added thereto, followed by incubation at a temperature of 25°C for 1 hour. Then, the resulting suspension was diluted with 900 µl of the buffer solution for assay cooled with ice, and thereafter separated into a supernatant and a precipitate by centrifugation at 12,000 X g for 10 minutes. Cell membranes and an endothelin receptor A (ETA) embedded therein were contained in the precipitate, and radioactive iodine-labeled endothelin combined with the receptor was also recovered in the precipitate. Accordingly, the amount of radioactive iodine-labeled endothelin combined with the endothelin receptor A (ETA) was determined by measuring the amount of radioactive iodine contained in the precipitate with a gamma-ray counter. The cyclic pentapeptide described in Japanese Patent Application No. 2-413328/1990, cyclo[-D-Glu-Ala-D-aIle-Leu-D-Trp-], was used as a control compound. The numerical value of ETA shown in Table 1 is the value of specific activity, taking the binding activity of this cyclic pentapeptide on the receptor A as 1.0. The binding activity (IC50) of this cyclic pentapeptide on the ETA receptor is 2x10^-6 M.

[2] = target: T2, endothelin receptor B (ETB) (Bos taurus, UniProt P28088); assay: Assay of affinity for receptor (2): binding activity on ETB receptor *1, 125I-labeled endothelin-1, bovine brain membrane fraction; conditions: specific activity, taking the binding activity of the compound of Example 8 on receptor B as 100, 25°C, 1 hour
T2 construct: A membrane fraction prepared from the bovine brain; from tissue; host or cells: bovine brain membrane fraction
T2 sequence (P28088 27-441): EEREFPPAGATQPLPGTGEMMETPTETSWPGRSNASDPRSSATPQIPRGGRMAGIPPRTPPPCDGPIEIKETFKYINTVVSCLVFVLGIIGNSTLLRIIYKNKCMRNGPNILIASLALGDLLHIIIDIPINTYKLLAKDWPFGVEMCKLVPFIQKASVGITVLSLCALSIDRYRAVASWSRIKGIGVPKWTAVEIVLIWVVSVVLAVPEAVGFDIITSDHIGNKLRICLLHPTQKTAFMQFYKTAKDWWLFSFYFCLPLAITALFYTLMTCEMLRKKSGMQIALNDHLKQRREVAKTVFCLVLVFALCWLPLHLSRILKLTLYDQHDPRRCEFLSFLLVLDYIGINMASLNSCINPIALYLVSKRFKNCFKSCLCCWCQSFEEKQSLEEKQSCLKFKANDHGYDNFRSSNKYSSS
Experimental: Assay of Affinity for Receptor (2) ... Binding Activity on ETB Receptor *1
A membrane fraction prepared from the bovine brain was diluted to 0.15 mg/ml by using a buffer solution for assay, and 100 µl of the resulting suspension of the membrane fraction was poured into each assay tube to use for assay. To this suspension of the membrane fraction was added 2 µl of 5 nM ^125I labeled endothelin-1 solution. Further, 3 µl of a test peptide solution was added thereto, followed by incubation at a temperature of 25°C for 1 hour. Then, the resulting suspension was diluted with 900 µl of the buffer solution for assay cooled with ice, and thereafter separated into a supernatant and a precipitate by centrifugation at 12,000 X g for 10 minutes. Cell membranes and an endothelin receptor B (ETB) embedded therein were contained in the precipitate, and radioactive iodine-labeled endothelin bound to the receptor was also recovered in the precipitate. Accordingly, the amount of radioactive iodine-labeled endothelin bound to the endothelin receptor B (ETB) was determined by measuring the amount of radioactive iodine contained in the precipitate with a gamma-ray counter. The numerical value of ETB shown in Table 1 is the value of specific activity, taking the binding activity of the compound of Example 8 on the receptor B as 100.

ETB = ETB radio receptor assay *2, 125I-endothelin-1, guinea pig kidney crude membrane fraction; assay type: binding, Guinea pigs; conditions: relative activity, 37 °C, 90 minutes
Experimental: ETB Radio Receptor Assay *2
In the endothelin radio receptor assay, guinea pigs' kidneys were used. Guinea pigs (Std Hartrey, male 250 g, Japan SLC Ltd.) were made to have a cerebral concussion and sacrificed by bleeding from carotid arteries to pick up the kidneys and removed fat therefrom to prepare the kidneys. The obtained kidneys were sliced and homogenized by politron homogenizer in 20 ml of 50 mM Tris-HCl buffer [pH 7.4; 20 mM NaHCO3, 0.1 mM PMSF (Phenylmethylsulfonyl Fluoride), 1 mM EDTA (Ethylenediaminetetraacetic acid)] per one kidney. The homogenized kidney was applied to a centrifugation at 1,000 x g for 15 minutes and the supernatant was further applied to a centrifugation for 20 minutes at 30,000 x g. The resulting precipitate was twice washed with 50 mM Tris-HCl buffer (pH 7.4) containing 0.1 mM PMSF, 1 mM EDTA. The resultant was stored at -80 °C as a crude receptor membrane fraction and was used as the suspension in the following buffer when necessary.
740 Bq of ^125I-endothelin-1 (81.4 TBq/mmol, Du Pont, USA) as a radio ligand, the crude membrane fraction (2.1 µg protein) and samples were added to the following buffer. The reaction was performed at 37 °C, for 90 minutes in 0.2 ml of the buffer [50 mM Tris-HCl buffer (pH 7.4) containing 0.1 mM PMSF, 1 mM EDTA, 0.2% bovine serum albumin].
The reaction was stopped by fast filtration on a glass filter (GF/B, Wattman, USA) by Cell Harvestor (290 PHD, Cambridge-Technology, Great Britain), and the filter was three times washed with 50 mM Tris-HCl buffer (pH 7.4). Radio activity remained on the filter was assayed by a gamma counter.

| SMILES | Binding Activity on ET Receptor (R. act.) ETA [1] | Binding Activity on ET Receptor (R. act.) ETB*1 [2] | Binding Activity on ET Receptor (R. act.) ETB*2 (ETB) |
| --- | --- | --- | --- |
| CC(C)C[C@@H]1NC(=O)[C@@H](CC(C)C)NC(=O)[C@H](CC(=O)O)NC(=O)[C@H](C)NC(=O)[C@@H](CC(=O)O)NC(=O)[C@@H](Cc2c[nH]c3ccccc23)NC1=O [Example 1, cyclo[-D-Asp-Ala-Asp-D-Leu-Leu-D-Trp-]] (cyclo(AD[dL]L[dW][dD])) | 9.7 | 13 | 2.0 |
| CC(C)C[C@@H]1NC(=O)[C@@H](CC(C)C)NC(=O)[C@H](CC(=O)O)NC(=O)[C@@H]2CCCN2C(=O)[C@@H](CC(=O)O)NC(=O)[C@@H](Cc2c[nH]c3ccccc23)NC1=O [Example 9, cyclo[-D-Asp-Pro-Asp-D-Leu-Leu-D-Trp-]] (cyclo(D[dL]L[dW][dD]P)) | 56 | 140 | 67 |
| CC(C)C[C@@H]1NC(=O)[C@@H](CC(C)C)NC(=O)[C@H](CC(=O)O)NC(=O)[C@@H]2C[C@@H](O)CN2C(=O)[C@@H](CC(=O)O)NC(=O)[C@@H](Cc2c[nH]c3ccccc23)NC1=O [Example 14, cyclo[-D-Asp-Hyp-Asp-D-Leu-Leu-D-Trp-]] (cyclo(D[dL]L[dW][dD][Hyp])) | 70 | 160 | 120 |
| CC(C)C[C@@H]1NC(=O)[C@@H](CC(C)C)NC(=O)[C@H](CC(=O)O)NC(=O)[C@H](CC(=O)O)NC(=O)[C@@H](CC(=O)O)NC(=O)[C@@H](Cc2c[nH]c3ccccc23)NC1=O [Example 16, Cyclo[-D-Asp-Asp-Asp-D-Leu-Leu-D-Trp-]] (cyclo(DD[dL]L[dW][dD])) | 10 | 14 | 34 |
| CC(C)C[C@@H]1NC(=O)[C@@H](CC(C)C)NC(=O)[C@H](CC(=O)O)NC(=O)[C@H](Cc2cn(C=O)c3ccccc23)NC(=O)[C@@H](CC(=O)O)NC(=O)[C@@H](Cc2c[nH]c3ccccc23)NC1=O [Example 22, Cyclo[-D-Asp-Trp(For)-Asp-D-Leu-Leu-D-Trp-]] (cyclo(D[dL]L[dW][dD]W(For))) | 8.3 | 6.7 | 15 |
| CC(C)C[C@@H]1NC(=O)[C@@H](CC(C)C)NC(=O)[C@H](CC(=O)O)NC(=O)[C@@H]2CCN2C(=O)[C@@H](CC(=O)O)NC(=O)[C@@H](Cc2c[nH]c3ccccc23)NC1=O [Example 25, Cyclo[-D-Asp-Azc-Asp-D-Leu-Leu-D-Trp-]] (cyclo([Aze]D[dL]L[dW][dD])) | 30 | 25 | 57 |
| CC(C)C[C@@H]1NC(=O)[C@@H](CC(C)C)NC(=O)[C@H](CC(=O)O)NC(=O)[C@@H]2CCCCN2C(=O)[C@@H](CC(=O)O)NC(=O)[C@@H](Cc2c[nH]c3ccccc23)NC1=O [Example 26, Cyclo[-D-Asp-Pip-Asp-D-Leu-Leu-D-Trp-]] (cyclo(D[dL]L[dW][dD][Pip])) | 25 | 38 | 73 |
| CC(C)C[C@@H]1NC(=O)[C@@H](Cc2cccs2)NC(=O)[C@H](CC(=O)O)NC(=O)[C@H](Cc2c[nH]c3ccccc23)NC(=O)[C@@H](CC(=O)O)NC(=O)[C@@H](Cc2c[nH]c3ccccc23)NC1=O [Example 50, Cyclo[-D-Asp-Trp-Asp-D-Thi-Leu-D-Trp-]] (cyclo(D[d2Thi]L[dW][dD]W)) | 4 | 350 | 57 |
| CC(C)C[C@@H]1NC(=O)[C@@H](C(C)C)NC(=O)[C@H](CC(=O)O)NC(=O)[C@H](Cc2c[nH]c3ccccc23)NC(=O)[C@@H](CC(=O)O)NC(=O)[C@@H](Cc2c[nH]c3ccccc23)NC1=O [Example 52, Cyclo[-D-Asp-Trp-Asp-D-Val-Leu-D-Trp-]] (cyclo(D[dV]L[dW][dD]W)) | 75 | 240 | 100 |
| CC(C)C[C@H]1NC(=O)[C@H](CC(=O)O)NC(=O)[C@H](C)NC(=O)[C@@H](CC(=O)O)NC(=O)[C@@H](Cc2c[nH]c3ccccc23)NC(=O)[C@H](Cc2c[nH]c3ccccc23)NC1=O [Example 58, Cyclo[-D-Asp-Ala-Asp-D-Leu-Trp-D-Trp-]] (cyclo(AD[dL]W[dW][dD])) | 0.7 | 6.7 | 22 |
| CC(C)C[C@@H]1NC(=O)[C@@H](Cc2ccccc2)NC(=O)[C@H](CC(=O)O)NC(=O)[C@H](Cc2c[nH]c3ccccc23)NC(=O)[C@@H](CC(=O)O)NC(=O)[C@@H](Cc2c[nH]c3ccccc23)NC1=O [Example 60, Cyclo[-D-Asp-Trp-Asp-D-Phe-Leu-D-Trp-]] (cyclo(D[dF]L[dW][dD]W)) | 1 | 210 | 44 |
